Counter-ions that a name gives are not always drawn. Like-named read-outs stand apart in the source and are kept apart here.
Legend:
Solubility in water = settings: for solubility: water, solubility in water
[1] = Acute toxicity, LD50 orally in mice; format: in vivo; settings: mouse, in vivo
Source text: (§1) The acute toxicity of the prodrugs was investigated. […].

in vivo = settings: mouse, topical or ocular
Procedure: The donor consisted of a 20% solution of these compounds in 1 mL of isopropanol applied to a 10 cm^2 on the backs of the hairless mice. Plasma levels of drugs were determined by a specific high-performance liquid chromatography method.

mice [2] = assay: Acute toxicity, LD50 orally in mice; format: in vivo; settings: oral, mice
Source text: as §1

mice [3] = assay: Analgesic activity: acetic acid writhing test in mice; format: in vivo; settings: for No. of Writhings: 50 mg/kg transdermally 60 minutes before acetic acid solution intraperitoneally, control group 35.0; for Rate of Inhibition (%): 50 mg/kg transdermally 60 minutes before acetic acid solution, based on the control group
Procedure: The number of writhings that occurred when mice were administered an acetic acid solution intraperitoneally were counted, and the rate of inhibition based on the control group was calculated. […] The group A is the control group.

Rats = assay: Antipyretic activity: rats given sterilized E. coli suspension as pyrogen; format: in vivo; settings: 25 mg/kg transdermally 2 hours after E. coli pyrogen, in °C (unit assumed)
Procedure: Antipyretic activity: Rats received a sterilized E. coli suspension as a pyrogen. […] The body temperature of the rats was taken at 90 min. intervals before and after the administration of the test compounds.

[4] = prodrug versus the drug itself (testosterone); cited from earlier work
[5] = oral, mice, read-out: LD50 orally in mice

| Compound | solubility (Solubility in water) [mg/mL] | LD50 ([1]; po) [mg/kg] | Cmax (in vivo) [µg/mL] | Tmax (in vivo) [min] | No. of Writhings (mice [3]) | Rate of Inhibition (%) (mice [3]) | body temperature of the rats, t = 0 min. (Rats) | body temperature of the rats, t = 90 min. (Rats) | body temperature of the rats, t = 180 min. (Rats) | body temperature of the rats, t = 270 min. (Rats) | other results |
| --- | --- | --- | --- | --- | --- | --- | --- | --- | --- | --- | --- |
| CN(C)CCCC(=O)OC1=C(C(=O)Nc2ccccn2)N(C)S(=O)(=O)c2ccsc21 | > 300 | 500 | ~500 | ~50 | – | – | – | – | – | – | – |
| CN(C)CCCC(=O)OC1=C(C(=O)Nc2ccccn2)N(C)S(=O)(=O)c2ccccc21 | > 300 | 550 | ~500 | ~50 | – | – | – | – | – | – | – |
| Cc1cnc(NC(=O)C2=C(OC(=O)CCCN(C)C)c3ccccc3S(=O)(=O)N2C)s1.Cl | – | – | – | – | – | – | – | – | – | – | time until peak plasma levels were reached after application of the donor systems (in vivo): ~50 min |
| CN(C)CCCC(=O)OC1=C(C(=O)Nc2ccccn2)N(C)S(=O)(=O)c2cc(Cl)sc21 | > 300 | 580 | ~500 | ~50 | – | – | – | – | – | – | – |
| CN(C)CCCC(=O)OC(Nc1ccccn1)=C1C(=O)c2sc(Cl)cc2S(=O)(=O)N1C | > 300 | 610 | ~500 | ~50 | – | – | – | – | – | – | – |
| CN(C)CCCC(=O)OC1=C(C(=O)Nc2nccs2)N(C)S(=O)(=O)c2ccccc21 | – | 670 | – | ~50 | – | – | – | – | – | – | – |
| 4- N,N-dimethylaminobutyryloxy - 2-methyl-N-[5-Methyl-3-isoxolyl-2H-1,2-benzothiazine-3-carboxamide 1,1-dioxide] .HCl [G] | – | – | – | – | 15.8 | 55 | 37.52±0.06 | 36.62±0.07 | 36.53±0.06 | 36.60±0.05 | LD50 orally in mice (mice [2]): 570 mg/kg; peak plasma levels (in vivo): ~0.5 mg/mL; time until peak plasma levels were reached after application of the donor systems (in vivo): ~50 min |
| CN(C)CCCC(=O)OC1=C(C(=O)Nc2ccccn2)N(C)S(=O)(=O)c2ccccc21 [B, 4-N,N-dimethylaminobutyryloxy-2-methyl-N-2-pyridinyl-2H,1,2-benzothiazine-3-carb oxamide 1,1-dioxide.HCl] | – | – | – | – | 15.6 | 55 | 37.57±0.06 | 36.51±0.05 | 36.40±0.06 | 36.45±0.07 | solubility in water (Solubility in water): 250 mg/mL |
| CN(C)CCCC(=O)OC1=C(C(=O)Nc2nccs2)N(C)S(=O)(=O)c2ccccc21 [C, N-(2-thiazoyl)-4-N,N-dimethylaminobutyryloxy-2-methyl-2H,1,2-benzothiazine-3-carbo xamide 1,1-dioxide.HCl] | > 300 | – | ~500 | – | 15.7 | 55 | 37.50±0.07 | 36.61±0.04 | 36.50±0.07 | 36.60±0.05 | solubility in water (Solubility in water; listed as N-(2-thiazolyl)-4-N,N-dimethylaminobutyryloxy-2-methyl-2H,1,2-benzothiazine-3-ca): 250 mg/mL |
| CN(C)CCCC(=O)OC1=C(C(=O)Nc2ccccn2)N(C)S(=O)(=O)c2cc(Cl)sc21 [Compound D, 6-chloro-4-N,N-dimethylaminobutyryloxy-2-methyl-N-2-pyridinyl-2H-thieno[2,3-e]-1 ,2-thiazine-3-carboxamide 1,1-dioxide.HCl] | – | – | – | – | 16.5 | 53 | 37.55±0.05 | 36.66±0.06 | 36.60±0.06 | 36.61±0.07 | solubility in water (Solubility in water): 250 mg/mL |
| CN(C)CCCC(=O)OC1=C(C(=O)Nc2ccccn2)N(C)S(=O)(=O)c2ccsc21 [E, 4-N,N-dimethylaminobutyryloxy-2-methyl-N-2-pyridinyl-2H-thieno[2,3-e]-1,2-thiazine-3-carboxamide 1,1-dioxide.HCl] | – | – | – | – | 16.9 | 53 | 37.54±0.06 | 36.61±0.06 | 36.58±0.08 | 36.55±0.05 | solubility in water (Solubility in water): 250 mg/mL |
| CN(C)CCCC(=O)OC(Nc1ccccn1)=C1C(=O)c2sc(Cl)cc2S(=O)(=O)N1C.Cl [F, 8-chloro-(4-N,N-dimethylaminobutyryloxy-pyridine-2-ylamino-methylidene)-3-methy 1-2,2-dioxo-2λ^6'7-dithia-3-azabicyclo[4,3,0]nona-8,10-dien-5-one.HCl] | – | – | – | – | 17.5 | 50 | 37.53±0.05 | 36.57±0.05 | 36.52±0.07 | 36.51±0.06 | – |
| Cc1cnc(NC(=O)C2=C(OC(=O)CCCN(C)C)c3ccccc3S(=O)(=O)N2C)s1 [H, 4-N,N-dimethylaminobutyryloxy-2-methyl-N-(5-methyl-2-thiazolyl)-2H-1,2-benzothiazine-3-carboxamide-1,1-dioxide.HCl] | – | – | ~500 | – | 18.2 | 48 | 37.57±0.07 | 36.53±0.08 | 36.52±0.08 | 36.50±0.07 | LD50 [1, 5]: 590 mg/kg |
| CN1C(C(=O)Nc2ccccn2)=C(O)c2ccccc2S1(=O)=O [Piroxicam, reference compound] | – | – | ~5 | – | – | – | – | – | – | – | LD50 [1, 5]: 360 mg/kg |
| CN(C)CCCC(=O)O[C@H]1CC[C@H]2[C@@H]3CCC4=CC(=O)CC[C@]4(C)[C@H]3CC[C@]12C.Cl [TSBH, testosteronyl-4-dimethylaminobutyrate.HCl] | – | – | – | – | – | – | – | – | – | – | diffuses through human skin faster than does the drug itself [4]: ~ 60 times |
| CN1C(C(=O)Nc2nccs2)=C(O)c2ccccc2S1(=O)=O [sudoxiam, reference compound] | – | – | – | – | – | – | – | – | – | – | peak plasma levels (in vivo): ~0.005 mg/mL |

From patent EP2084165B1, “POSITIVELY CHARGED WATER-SOLUBLE PRODRUGS OF OXICAMS AND RELATED COMPOUNDS WITH VERY HIGH SKIN PENETRATION RATE” (Techfields Biochem Co. Ltd, priority 2006, dated 2008)
